Data set [1] deals with T1, PARG (Homo sapiens, UniProt Q86W56). The format is biochemical. The note with it: read-out: PARG Enzyme Activity.
Data set [2] concerns the target T1, PARG. The format is cell-based. The note with it: read-out: PARG Cell Assay.
Data set [3] in a line: Mouse microsomal stability. The settings on record: microsomes, read-out: Mouse Microsomes T1/2. The class given is in vitro ADME.
The nature of data set [4]: Human liver microsomal stability. The class given is in vitro ADME. The note with it: liver microsomes, read-out: Human Microsomes T1/2. An excerpt:
Table 1 Improvements to metabolic stability through cyclopropyl modification. | column: Human Microsomes T1/2 (minutes)

Another data set has as its system CD-1 mice. Put plainly: In vivo tolerability / toxicity observation during PK studies. Details: species or system mouse. The note with it: for Toxicity Observed / Time of onset of ataxia after oral dosing: mice; for Tolerability in vivo: oral doses from 5 mg/kg to 160 mg/kg; for Time of onset of ataxia after oral dosing: oral dosing arm, 5 mg/kg. As for the experimental part:
We therefore initiated a dose-escalation study to examine dose versus exposure of the compound. […] Our following study, with derivative 12, incorporated enhanced monitoring and here we observed the onset of ataxia shortly after the 5 h sampling time point, and exclusively in the oral dosing arm of the study, despite lower absolute and free drug exposures in these dosing arms.
(§1) Pharmacokinetics were studied in 6-8 week old male CD-1 mice following single intravenous or oral administration. Compounds were formulated as solutions comprising up to 10% DMSO with up to 10% Tween80 in saline at a concentration of approximately 1 mM. Doses were administered at 1 mg/kg (intravenous) or 5 mg/kg (oral gavage) unless otherwise stated. Blood samples were collected as dried blood spots (Agilent Bond Elut DMS cards) and assayed following solvent extraction using methanol, through a phospholipid removal plate (Phree phospholipid removal plates, Phenomenex) followed by LC-MS/MS analysis. The time-points for blood collection were as follows: oral (0.5, 1, 3, 5 and 24 h); intravenous (0.1, 0.25, 0.75, 2, 5 and 24 h). The resulting concentration-time data were analyzed by non-compartmental methods (PK Solver, Excel Add-In).

A short description of data set [5]: In vivo pharmacokinetics in CD-1 mice. Further details: species or system mouse. The settings on record: for In vivo half-life: initial in vivo PK studies; for Fold exposure relative to cell IC50: defined as [Cmax(free)]/Cell IC50. How it is done:
as §1

The nature of data set [6]: Metabolite identification studies. The format is in vitro ADME. The note with it: formed via removal of the cyclopropylmethyl moiety. An excerpt: In an attempt to improve the in vivo PK profile, we undertook a series of metabolite identification studies, to determine the key sites of metabolism on 1 and 2.
Setting [7] is: geometric mean of at least two independent determinations.
Where [8] appears, read: oral dose 5 (mg/kg), male CD-1 mice.

Entries after “also recorded” stand apart in the source; their conditions may differ. Where two headings read alike, the source gives them in different places. Where only a bound is given, the exact number is not on record here.

T1 sequence (Q86W56 whole entry, species assumed): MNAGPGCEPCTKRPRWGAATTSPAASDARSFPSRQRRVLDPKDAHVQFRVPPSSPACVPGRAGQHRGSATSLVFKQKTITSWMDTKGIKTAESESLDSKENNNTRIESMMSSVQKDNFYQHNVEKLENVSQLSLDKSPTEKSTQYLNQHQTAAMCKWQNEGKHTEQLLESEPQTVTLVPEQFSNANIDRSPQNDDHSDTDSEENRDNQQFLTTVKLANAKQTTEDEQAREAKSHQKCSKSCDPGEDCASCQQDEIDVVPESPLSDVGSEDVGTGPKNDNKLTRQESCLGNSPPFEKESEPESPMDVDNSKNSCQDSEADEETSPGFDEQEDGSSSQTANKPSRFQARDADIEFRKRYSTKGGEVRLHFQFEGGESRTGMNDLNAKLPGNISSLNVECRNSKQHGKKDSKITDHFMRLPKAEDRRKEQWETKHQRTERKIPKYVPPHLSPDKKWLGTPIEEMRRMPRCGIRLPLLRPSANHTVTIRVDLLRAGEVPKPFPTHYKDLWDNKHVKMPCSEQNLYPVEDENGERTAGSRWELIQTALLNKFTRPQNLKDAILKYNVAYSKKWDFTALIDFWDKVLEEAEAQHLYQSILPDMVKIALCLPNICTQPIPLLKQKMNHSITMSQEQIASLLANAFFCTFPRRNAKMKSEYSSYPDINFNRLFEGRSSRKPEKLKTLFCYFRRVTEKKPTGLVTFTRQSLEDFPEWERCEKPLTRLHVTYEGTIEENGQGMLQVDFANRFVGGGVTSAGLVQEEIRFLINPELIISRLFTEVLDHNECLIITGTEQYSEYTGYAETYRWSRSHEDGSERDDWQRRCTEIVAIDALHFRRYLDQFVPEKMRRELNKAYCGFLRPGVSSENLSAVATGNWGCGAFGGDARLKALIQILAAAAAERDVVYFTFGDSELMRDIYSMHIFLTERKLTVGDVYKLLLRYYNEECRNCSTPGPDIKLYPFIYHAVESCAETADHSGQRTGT

With `Cn1cc(Cn2c(=O)c3cc(S(=O)(=O)NC4(C(F)F)CC4)ccc3n(Cc3ccn(C)n3)c2=O)cn1` [Compound 6], the IC50 at PARG [1] (setting [7]) stood at 320 nM; on PARG [2] (setting [7]), 1250 nM. In addition, the figures for the half-life in data set [3] and in data set [4] were 42 min and 71 min, respectively.

For `CCn1c(=O)n(Cc2cnn(C)c2)c(=O)c2cc(S(=O)(=O)NC3(C)CC3)ccc21` [Compound 9], the half-life in data set [3] came to 47 min. For the same molecule, in the data set with CD-1 mice (oral dose 5 (mg/kg)), the “Toxicity Observed” value is recorded as “No”.

In the case of `Cn1cc(Cn2c(=O)c3cc(S(=O)(=O)NC4(C(F)(F)F)CC4)ccc3n(Cc3ccn(C)n3)c2=O)cn1` [Compound 7], the IC50 on PARG [1] (setting [7]) was found to be 3600 nM; at PARG [2] (setting [7]) it was 4100 nM. The half-life in data set [3] came out at 38 min; in data set [4] it was 102 min.

As to `Cn1cc(Cn2c(=O)c3cc(S(=O)(=O)NC4(C)CC4)ccc3n(C)c2=O)cn1` [Compound 11], the half-life in data set [3] came to 82 min. Also, the “Toxicity Observed” value with CD-1 mice (oral dose 5 (mg/kg)) is reported as “No”.

`[2H]C([2H])([2H])C1(NS(=O)(=O)c2ccc3c(c2)c(=O)n(Cc2cnn(C)c2)c(=O)n3Cc2ccn(C)n2)CC1` [Compound 8]: the IC50 at PARG [1] (setting [7]) was determined as 30 nM; on PARG [2] (setting [7]), 70 nM. Further, the results for the half-life in data set [3] and in data set [4] were 18 min and 34 min, respectively.

`Cn1cc(Cn2c(=O)c3cc(S(=O)(=O)NC4(C)CC4)ccc3n(Cc3ccn(C)n3)c2=O)cn1` [Compound 1]: the values for the IC50 on PARG [1] (setting [7]) and at PARG [2] (setting [7]) were 20 nM and 90 nM, respectively. The results for the half-life in data set [3] and in data set [4] were 22 min and 53 min, respectively. Besides, the In vivo half-life entry in data set [5] (in words) is “short half-lives”. Moreover, the “Fold exposure relative to cell IC50” value is recorded as 0.96 in data set [5] (setting [8]) and 350 in data set [5] (oral dose 160 (mg/kg), mice). Besides, the “Toxicity Observed” value in the data set on CD-1 mice (oral dose 5 (mg/kg)) and in the data set on CD-1 mice (oral dose 160 (mg/kg)) was “No” in each case. Moreover, the Tolerability in vivo entry in the data set on CD-1 mice is “well tolerated”. Further, the Major metabolite result in data set [6] is “primary sulphonamides 3 and 4”.

For the molecule `Cn1cc(Cn2c(=O)c3cc(S(=O)(=O)NC4(CF)CC4)ccc3n(C)c2=O)cn1` [Compound 12], the results for the IC50 on PARG [1] and at PARG [2] were 630 nM and 290 nM, respectively. The half-life in data set [3] turned out to be 285 min. The “Total exposure and Cmax relative to compound 1” value in data set [5] (in vivo, mice) was “over four-fold lower”. The “Fold exposure relative to cell IC50” value in data set [5] (setting [8]) came to 61. In the data set with CD-1 mice (oral dose 5 (mg/kg)), the “Toxicity Observed” value is given as “Ataxia”. The “Time of onset of ataxia after oral dosing” value with CD-1 mice was more than 5 h.

Turning to `Cc1cc(Cn2c(=O)c3cc(S(=O)(=O)NC4(C)CC4)ccc3n(C)c2=O)on1` [Compound 2], in data set [5] (in words), the In vivo half-life entry is “short half-lives”. Moreover, the Tolerability in vivo result in the data set on CD-1 mice is recorded as “well tolerated”. In addition, in data set [6], the Major metabolite result is “primary sulphonamides 3 and 4”.

For the molecule `CCn1c(=O)n(Cc2cnn(C)c2)c(=O)c2cc(S(=O)(=O)NC3(CF)CC3)ccc21` [Compound 10], the IC50 is 100 nM at PARG [1] and 80 nM on PARG [2]. In addition, in data set [3], the half-life was 102 min. Also, the “Fold exposure relative to cell IC50” value in data set [5] (setting [8]) came to 15. The “Toxicity Observed” value in the data set on CD-1 mice (oral dose 5 (mg/kg)) is “well tolerated and No”; in the data set on CD-1 mice (oral dose 10 (dose-escalation study)) it was “one animal was found dead on study; also recorded: liver toxicity was the probable cause of death”.

For the molecule `CCn1c(=O)n(Cc2cc(C)on2)c(=O)c2cc(S(=O)(=O)NC3(CF)CC3)ccc21` [Compound 13], the results for the IC50 on PARG [1] (setting [7]) and on PARG [2] (setting [7]) were 1520 nM and 6600 nM, respectively. Besides, the half-life in data set [3] is 121 min. Moreover, the “Fold exposure relative to cell IC50” value in data set [5] (setting [8]) is on record as 0.28. Moreover, the “Toxicity Observed” value in the data set on CD-1 mice (oral dose 5 (mg/kg)) is recorded as “Ataxia”. Besides, in the data set with CD-1 mice, the “Time of onset of ataxia after oral dosing” value is more than 5 h.

For the molecule `Cn1cc(Cn2c(=O)c3cc(S(=O)(=O)NC4(CF)CC4)ccc3n(Cc3ccn(C)n3)c2=O)cn1` [Compound 5], the IC50 on PARG [1] (setting [7]) came to 20 nM; on PARG [2] (setting [7]) it was 170 nM. The results for the half-life in data set [3] and in data set [4] were 37 min and 82 min, respectively. Also, in data set [5] (mice, in words), the In vivo clearance entry is reported as “very rapidly cleared after oral dosing; also recorded: high clearance”. Also, the “Fold exposure relative to cell IC50” value in data set [5] (setting [8]) stood at 0.18. In the data set with CD-1 mice (oral dose 5 (mg/kg)), the “Toxicity Observed” value is reported as “No”.

For the origin of these results see paper PMC6376317, “Fluoromethylcyclopropylamine derivatives as potential in vivo toxicophores – A cautionary disclosure” (Bioorganic & Medicinal Chemistry Letters, 2019).
